Two molecules from ChEMBL document CHEMBL5321210, “N-adamantyl-anthranil amide derivatives: New selective ligands for the cannabinoid receptor subtype 2 (CB2R)” (Eur J Med Chem, 2023) can be followed below.

Assay [1] deals with THP-1. Kind of assay: Antiinflammatory activity in PMA-differentiated human THP-1 monocytes assessed as increase in IL-10 production at 10 uM incubated for 24 hrs in the presence of N-(adamantan-1-yl)-4-(pentylamino)-[1,1'-biphenyl]-3-carboxamide by ELISA coupled qRT-PCR analysis. The class given is functional, cell-based.
Assay [2] relates to THP-1. Nature of the assay: Antiinflammatory activity in PMA-differentiated human THP-1 monocytes assessed as decrease in TNF-alpha production at 10 uM incubated for 24 hrs in the presence of N-(adamantan-1-yl)-4-(pentylamino)-[1,1'-biphenyl]-3-carboxamide by ELISA coupled qRT-PCR analysis. The class given is functional, cell-based. A general note: In an ELISA, binding on a coated surface is turned into a signal by an enzyme label.

For assay [3], the system named is THP-1. Kind of assay: Antiinflammatory activity in human THP-1 monocytes assessed as decrease in IFN-gamma production at 10 uM incubated for 24 hrs in the presence of JTE907 by ELISA coupled qRT-PCR analysis. The class given is functional, cell-based.
Assay [4] has as its system THP-1. Nature of the assay: Antiinflammatory activity in PMA-differentiated human THP-1 macrophages assessed as reduction in TNF-alpha production at 10 uM incubated for 24 hrs by ELISA coupled qRT-PCR analysis relative to control. The class given is functional. Details: scale not given: the % may be the effect or the level left.
The test system of assay [5] is THP-1. Nature of the assay: Antiinflammatory activity in PMA-differentiated human THP-1 macrophages assessed as increase in IL-10 production at 10 uM incubated for 24 hrs in the presence of JTE907 by ELISA coupled qRT-PCR analysis. The class given is functional, cell-based.
Assay [6] relates to THP-1. Nature of the assay: Antiinflammatory activity in LPS-activated PMA-differentiated human THP-1 macrophages assessed as increase in IL-10 production at 10 uM incubated for 24 hrs in the presence of JTE907 by ELISA coupled qRT-PCR analysis. The class given is functional, cell-based.
For assay [7], the system named is THP-1. Nature of the assay: Antiinflammatory activity against LPS-activated PMA-differentiated human THP-1 monocytes assessed as decrease in IL-1beta production at 10 uM incubated for 24 hrs in the presence of N-(adamantan-1-yl)-4-(pentylamino)-[1,1'-biphenyl]-3-carboxamide by ELISA coupled qRT-PCR analysis. The class given is functional, cell-based.
The test system of assay [8] is THP-1. Nature of the assay: Antiinflammatory activity in human THP-1 monocytes assessed as increase in IL-4 production at 10 uM incubated for 24 hrs by ELISA coupled qRT-PCR analysis. The class given is functional, cell-based.
The subject of assay [9] is THP-1. Kind of assay: Antiinflammatory activity in human THP-1 monocytes assessed as decrease in TNF-alpha production at 10 uM incubated for 24 hrs in the presence of JTE907 by ELISA coupled qRT-PCR analysis. The class given is functional, cell-based.
The test system of assay [10] is THP-1. Nature of the assay: Antiinflammatory activity in PMA-differentiated human THP-1 monocytes assessed as decrease in IL-6 production at 10 uM incubated for 24 hrs in the presence of N-(adamantan-1-yl)-4-(pentylamino)-[1,1'-biphenyl]-3-carboxamide by ELISA coupled qRT-PCR analysis. The class given is functional, cell-based.
In assay [11] the test system is THP-1. Nature of the assay: Antiinflammatory activity against LPS-activated PMA-differentiated human THP-1 macrophages assessed as decrease in IL-6 production at 10 uM incubated for 24 hrs by ELISA coupled qRT-PCR analysis relative to control. The class given is functional. Details: scale not given: the % may be the effect or the level left.
The subject of assay [12] is THP-1. Kind of assay: Antiinflammatory against LPS-activated human THP-1 monocytes assessed as decrease in TNF-alpha production at 10 uM incubated for 24 hrs in the presence of JTE907 by ELISA coupled qRT-PCR analysis. The class given is functional, cell-based.
The subject of assay [13] is THP-1. Kind of assay: Antiinflammatory activity in PMA-differentiated human THP-1 macrophages assessed as increase in IL-4 production at 1 to 10 uM incubated for 24 hrs in the presence of JTE907 by ELISA coupled qRT-PCR analysis. As to conditions: dose 1-10 µM. The class given is functional, cell-based.
Assay [14] relates to THP-1. Kind of assay: Antiinflammatory activity in LPS-activated PMA-differentiated human THP-1 macrophages assessed as decrease in TNF-alpha production at 1 to 10 uM incubated for 24 hrs in the presence of JTE907 by ELISA coupled qRT-PCR analysis. The class given is functional, cell-based. The following applies: dose 1-10 µM.
Assay [15] has as its system THP-1. Kind of assay: Antiinflammatory against LPS-activated human THP-1 monocytes assessed as decrease in IL-1beta production at 1 to 10 uM incubated for 24 hrs in the presence of JTE907 by ELISA coupled qRT-PCR analysis. The class given is functional, cell-based. As to conditions: dose 1-10 µM.
Assay [16] has as its system THP-1. Nature of the assay: Antiinflammatory against LPS-activated human THP-1 monocytes assessed as decrease in IL-6 production at 1 to 10 uM incubated for 24 hrs in the presence of JTE907 by ELISA coupled qRT-PCR analysis. The class given is functional, cell-based. The following applies: dose 1-10 µM.
For assay [17], the system named is THP-1. Kind of assay: Antiinflammatory activity in human THP-1 monocytes assessed as decrease in IFN-gamma production incubated for 24 hrs by ELISA coupled qRT-PCR analysis. The class given is functional, cell-based. The following applies: dose 1-10 µM.
The test system of assay [18] is THP-1. Kind of assay: Antiinflammatory activity in LPS-activated PMA-differentiated human THP-1 macrophages assessed as decrease in IFN-gamma production at 1 to 10 uM incubated for 24 hrs in the presence of JTE907 by ELISA coupled qRT-PCR analysis. The class given is functional, cell-based. The following applies: dose 1-10 µM.
Assay [19] relates to THP-1. Nature of the assay: Antiinflammatory activity in LPS-activated PMA-differentiated human THP-1 macrophages assessed as decrease in IL-1beta production at 1 to 10 uM incubated for 24 hrs in the presence of JTE907 by ELISA coupled qRT-PCR analysis. The class given is functional, cell-based. As to conditions: dose 1-10 µM.
Assay [20] deals with THP-1. Nature of the assay: Antiinflammatory activity in LPS-activated PMA-differentiated human THP-1 macrophages assessed as increase in IL-10 production at 1 to 10 uM incubated for 24 hrs in the presence of JTE907 by ELISA coupled qRT-PCR analysis. The class given is functional, cell-based. The following applies: dose 1-10 µM.
Assay [21] concerns THP-1. Nature of the assay: Antiinflammatory activity in PMA-differentiated human THP-1 macrophages assessed as increase in IL-10 production at 1 to 10 uM incubated for 24 hrs in the presence of JTE907 by ELISA coupled qRT-PCR analysis. The class given is functional, cell-based. The following applies: dose 1-10 µM.
The test system of assay [22] is THP-1. Kind of assay: Antiinflammatory activity against LPS-activated PMA-differentiated human THP-1 macrophages assessed as increase in IL-10 production at 1 to 10 uM incubated for 24 hrs by ELISA coupled qRT-PCR analysis. As to conditions: dose 1-10 µM. The class given is functional, cell-based.
The test system of assay [23] is THP-1. Nature of the assay: Antiinflammatory activity in human THP-1 monocytes assessed as decrease in IL-1beta production at 1 to 10 uM incubated for 24 hrs in the presence of JTE907 by ELISA coupled qRT-PCR analysis. The class given is functional, cell-based. The following applies: dose 1-10 µM.
The subject of assay [24] is THP-1. Kind of assay: Antiinflammatory activity against LPS-activated PMA-differentiated human THP-1 macrophages assessed as decrease in IL-6 production at 1 to 10 uM incubated for 24 hrs by ELISA coupled qRT-PCR analysis relative to control. The class given is functional. Set-up: scale not given: the % may be the effect or the level left. The following applies: dose 1-10 µM.

For assay [25], the system named is THP-1. Nature of the assay: Antiinflammatory activity in PMA-differentiated human THP-1 macrophages assessed as reduction in IL-1beta production at 1 to 10 uM incubated for 24 hrs by ELISA coupled qRT-PCR analysis relative to control. Details: scale not given: the % may be the effect or the level left. As to conditions: dose 1-10 µM. The class given is functional.

Assay [26] deals with THP-1. Nature of the assay: Antiinflammatory activity in PMA-differentiated human THP-1 macrophages assessed as decrease in IL-1beta production at 1 to 10 uM incubated for 24 hrs in the presence of JTE907 by ELISA coupled qRT-PCR analysis. As to conditions: dose 1-10 µM. The class given is functional, cell-based.
Assay [27] concerns THP-1. Nature of the assay: Antiinflammatory activity in human THP-1 monocytes assessed as increase in IL-10 production at 1 to 10 uM incubated for 24 hrs in the presence of JTE907 by ELISA coupled qRT-PCR analysis. The class given is functional, cell-based. The following applies: dose 1-10 µM.
Assay [28] has as its system THP-1. Kind of assay: Antiinflammatory against LPS-activated human THP-1 monocytes assessed as decrease in IFN-gamma production at 1 to 10 uM incubated for 24 hrs in the presence of JTE907 by ELISA coupled qRT-PCR analysis. The class given is functional, cell-based. The following applies: dose 1-10 µM.

Active and inactive are the calls of the source. No cut-off for these calls is given here.

In the case of `O=C(NC1CCCCC1)c1cn(CCN2CCOCC2)c2cc(Cl)ccc2c1=O`, the result in the assay on THP-1 [1], with THP-1 [2], with THP-1 [3], with THP-1 [5], in the assay on THP-1 [6] and with THP-1 [7] was inactive. Moreover, the result in the assay on THP-1 [9], in the assay with THP-1 [10] and with THP-1 [12] was inactive. Also, the figures for the Activity in the assay on THP-1 [4] and with THP-1 [11] were 50% and 70%, respectively. Also, in the assay on THP-1 [8], the outcome was Active.
With `CCCCCNc1ccccc1C(=O)NC12CC3CC(CC(C3)C1)C2`, the result with THP-1 [13], in the assay on THP-1 [14], in the assay on THP-1 [15], in the assay with THP-1 [16], in the assay on THP-1 [18] and with THP-1 [19] was inactive. In addition, the result in the assay on THP-1 [20], with THP-1 [21], with THP-1 [23], with THP-1 [26], in the assay with THP-1 [27] and with THP-1 [28] was inactive. Also, the Activity entry is “Dose-Dependent Effect” in the assay with THP-1 [17], 70% in the assay with THP-1 [24] and 50% in the assay on THP-1 [25]. Also, in the assay with THP-1 [22], the outcome was Active.
